Measurements from patent US20230085307A1, “PYRIDAZINONE COMPOUND AND HERBICIDE” (NISSAN CHEMICAL CORPORATION, priority 2019, published 2023).

How the values were obtained:
southern crabgrass = experiment: Test Example 5: herbicidal effect by foliage application, plastic box (Table 20, symbol F); type: in vivo, southern crabgrass (Digitaria ciliaris); conditions: foliage application; for F: southern crabgrass, herbicidal effect (criteria 0-5): AAH 320 g/ha, evaluated three weeks after application; for F: southern crabgrass, herbicidal effect grade: 320 g/ha, three weeks after application
Procedure, shortened: (§1)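 Plants sown in sterilized diluvial soil and grown 14 days in a greenhouse at 25° C to 30° C, then sprayed on the foliage with the compound's emulsion diluted in water to a predetermined herbicide amount. Injury to weeds and crops scored three weeks after application on a visual rating scale.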

barnyard grass [1] = experiment: Test Example 3: herbicidal effect by foliage application, Wagner pot (Table 18, symbol H); type: in vivo, barnyard grass (Echinochloa crus-galli); conditions: amount of applied herbicide 320 g/ha
Procedure, shortened: (§2)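 Plants were sown in alluvial soil held under 0.1–0.5 cm standing water and grown 14 days in a greenhouse at 25–30 °C. An emulsifiable formulation, water-diluted to the set dose, was then sprayed onto the foliage, and effects were scored three weeks later using previously defined criteria.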

green foxtail = experiment: Test Example 5: herbicidal effect by foliage application, plastic box (Table 20, symbol G); type: in vivo, green foxtail (Setaria viridis); conditions: foliage application; for G: green foxtail, herbicidal effect (criteria 0-5): AAH 320 g/ha, evaluated three weeks after application; for G: green foxtail, herbicidal effect grade: 320 g/ha, three weeks after application
Procedure, shortened: as §1

windgrass = experiment: Test Example 5: herbicidal effect by foliage application, plastic box (Table 20, symbol L); type: in vivo, windgrass (Apera spica-venti); conditions: foliage application; for L: windgrass, herbicidal effect (criteria 0-5): AAH 320 g/ha, evaluated three weeks after application; for L: windgrass, herbicidal effect grade: 320 g/ha, three weeks after application
Procedure, shortened: as §1

rice flat sedge = experiment: Test Example 3: herbicidal effect by foliage application, Wagner pot (Table 18, symbol E); type: in vivo, rice flat sedge (Cyperus iria); conditions: amount of applied herbicide 320 g/ha
Procedure, shortened: as §2

barnyard grass [2] = experiment: Test Example 5: herbicidal effect by foliage application, plastic box (Table 20, symbol H); type: in vivo, barnyard grass (Echinochloa crus-galli); conditions: foliage application; for H: barnyard grass, herbicidal effect (criteria 0-5): AAH 320 g/ha, evaluated three weeks after application; for H: barnyard grass, herbicidal effect grade: 320 g/ha, three weeks after application
Procedure, shortened: as §1

redroot pigweed = experiment: Test Example 5: herbicidal effect by foliage application, plastic box (Table 20, symbol N); type: in vivo, redroot pigweed (Amaranthus retroflexus); conditions: foliage application; for N: redroot pigweed, herbicidal effect (criteria 0-5): AAH 320 g/ha, evaluated three weeks after application; for N: redroot pigweed, herbicidal effect grade: 320 g/ha, three weeks after application
Procedure, shortened: as §1

chickweed = experiment: Test Example 5: herbicidal effect by foliage application, plastic box (Table 20, symbol P); type: in vivo, common chickweed (Stellaria media); conditions: foliage application; for P: chickweed, herbicidal effect (criteria 0-5): AAH 320 g/ha, evaluated three weeks after application; for P: chickweed, herbicidal effect grade: 320 g/ha, three weeks after application
Procedure, shortened: as §1

Italian ryegrass = experiment: Test Example 5: herbicidal effect by foliage application, plastic box (Table 20, symbol K); type: in vivo, Italian ryegrass (Lolium multiflorum); conditions: foliage application; for K: Italian ryegrass, herbicidal effect (criteria 0-5): AAH 320 g/ha, evaluated three weeks after application; for K: Italian ryegrass, herbicidal effect grade: 320 g/ha, three weeks after application
Procedure, shortened: as §1

blackgrass = experiment: Test Example 5: herbicidal effect by foliage application, plastic box (Table 20, symbol J); type: in vivo, blackgrass (Alopecurus myosuroides); conditions: foliage application; for J: blackgrass, herbicidal effect (criteria 0-5): AAH 320 g/ha, evaluated three weeks after application; for J: blackgrass, herbicidal effect grade: 320 g/ha, three weeks after application
Procedure, shortened: as §1

wild oat = experiment: Test Example 5: herbicidal effect by foliage application, plastic box (Table 20, symbol I); type: in vivo, wild oat (Avena fatua); conditions: foliage application; for I: wild oat, herbicidal effect (criteria 0-5): AAH 320 g/ha, evaluated three weeks after application; for I: wild oat, herbicidal effect grade: 320 g/ha, three weeks after application
Procedure, shortened: as §1

Chinese sprangletop = experiment: Test Example 3: herbicidal effect by foliage application, Wagner pot (Table 18, symbol D); type: in vivo, chinese sprangletop (Leptochloa chinensis); conditions: amount of applied herbicide 320 g/ha
Procedure, shortened: as §2

lambsquarters = experiment: Test Example 5: herbicidal effect by foliage application, plastic box (Table 20, symbol O); type: in vivo, lambsquarters (Chenopodium album); conditions: foliage application; for O: lambsquarters, herbicidal effect (criteria 0-5): AAH 320 g/ha, evaluated three weeks after application; for O: lambsquarters, herbicidal effect grade: 320 g/ha, three weeks after application
Procedure, shortened: as §1

velvetleaf = experiment: Test Example 5: herbicidal effect by foliage application, plastic box (Table 20, symbol M); type: in vivo, velvetleaf (Abutilon theophrasti); conditions: foliage application; for M: velvetleaf, herbicidal effect (criteria 0-5): AAH 320 g/ha, evaluated three weeks after application; for M: velvetleaf, herbicidal effect grade: 320 g/ha, three weeks after application
Procedure, shortened: as §1

persian speedwell = experiment: Test Example 5: herbicidal effect by foliage application, plastic box (Table 20, symbol R); type: in vivo, Persian speedwell (Veronica persica); conditions: foliage application; for R: persian speedwell, herbicidal effect (criteria 0-5): AAH 320 g/ha, evaluated three weeks after application; for R: persian speedwell, herbicidal effect grade: 320 g/ha, three weeks after application
Procedure, shortened: as §1

Structure (SMILES) | F: southern crabgrass, herbicidal effect (criteria 0-5) (southern crabgrass) | herbicidal effect on H: barnyard grass (barnyard grass [1]) | G: green foxtail, herbicidal effect (criteria 0-5) (green foxtail) | L: windgrass, herbicidal effect (criteria 0-5) (windgrass) | herbicidal effect on E: rice flat sedge (rice flat sedge) | H: barnyard grass, herbicidal effect (criteria 0-5) (barnyard grass [2]) | N: redroot pigweed, herbicidal effect (criteria 0-5) (redroot pigweed) | P: chickweed, herbicidal effect (criteria 0-5) (chickweed) | K: Italian ryegrass, herbicidal effect (criteria 0-5) (Italian ryegrass) | J: blackgrass, herbicidal effect (criteria 0-5) (blackgrass) | I: wild oat, herbicidal effect (criteria 0-5) (wild oat) | herbicidal effect on D: Chinese sprangletop (Chinese sprangletop) | O: lambsquarters, herbicidal effect (criteria 0-5) (lambsquarters) | M: velvetleaf, herbicidal effect (criteria 0-5) (velvetleaf) | R: persian speedwell, herbicidal effect (criteria 0-5) (persian speedwell) | F: southern crabgrass, herbicidal effect grade (southern crabgrass) | G: green foxtail, herbicidal effect grade (green foxtail) | L: windgrass, herbicidal effect grade (windgrass) | H: barnyard grass, herbicidal effect grade (barnyard grass [2]) | N: redroot pigweed, herbicidal effect grade (redroot pigweed) | other results
Cc1nn(C)c(=O)c(-c2c(-c3cccc(SCC(F)(F)F)c3)sc3ccc(F)cc23)c1O [2-262] | 0 (Herbicidal rate of 5% or less (almost no effect)) | 3 (Herbicidal rate of 40% or more and less than 70%) | 0 (Herbicidal rate of 5% or less (almost no effect)) | 4 (Herbicidal rate of 70% or more and less than 90%) | 2 (Herbicidal rate of 20% or more and less than 40%) | 0 (Herbicidal rate of 5% or less (almost no effect)) | 5 (Herbicidal rate of 90% or more (almost completely withered)) | 5 (Herbicidal rate of 90% or more (almost completely withered)) | 3 (Herbicidal rate of 40% or more and less than 70%) | 3 (Herbicidal rate of 40% or more and less than 70%) | 3 (Herbicidal rate of 40% or more and less than 70%) | 0 (Herbicidal rate of 5% or less (almost no effect)) | 3 (Herbicidal rate of 40% or more and less than 70%) | 4 (Herbicidal rate of 70% or more and less than 90%) | 5 (Herbicidal rate of 90% or more (almost completely withered)) | – | – | – | – | – | –
Cc1nn(C)c(=O)c(-c2c(-c3ccc(OC(F)F)cc3)sc3ccc(F)cc23)c1OC(=O)C(C)(C)c1ccccc1 [2-282] | 0 (Herbicidal rate of 5% or less (almost no effect)) | 3 (Herbicidal rate of 40% or more and less than 70%) | 4 (Herbicidal rate of 70% or more and less than 90%) | 0 (Herbicidal rate of 5% or less (almost no effect)) | 0 (Herbicidal rate of 5% or less (almost no effect)) | 1 (Herbicidal rate of 5% or more and less than 20%) | 5 (Herbicidal rate of 90% or more (almost completely withered)) | 5 (Herbicidal rate of 90% or more (almost completely withered)) | 0 (Herbicidal rate of 5% or less (almost no effect)) | 0 (Herbicidal rate of 5% or less (almost no effect)) | 0 (Herbicidal rate of 5% or less (almost no effect)) | 0 (Herbicidal rate of 5% or less (almost no effect)) | 5 (Herbicidal rate of 90% or more (almost completely withered)) | 4 (Herbicidal rate of 70% or more and less than 90%) | 5 (Herbicidal rate of 90% or more (almost completely withered)) | – | – | – | – | – | –
Cc1nn(C)c(=O)c(-c2c(-c3ccc(OC(F)F)cc3)sc3ccc(F)cc23)c1OC(=O)SC(C)(C)C [2-296] | 0 (Herbicidal rate of 5% or less (almost no effect)) | 5 (Herbicidal rate of 90% or more (almost completely withered)) | 5 (Herbicidal rate of 90% or more (almost completely withered)) | 0 (Herbicidal rate of 5% or less (almost no effect)) | 3 (Herbicidal rate of 40% or more and less than 70%) | 4 (Herbicidal rate of 70% or more and less than 90%) | 5 (Herbicidal rate of 90% or more (almost completely withered)) | 5 (Herbicidal rate of 90% or more (almost completely withered)) | 1 (Herbicidal rate of 5% or more and less than 20%) | 3 (Herbicidal rate of 40% or more and less than 70%) | 0 (Herbicidal rate of 5% or less (almost no effect)) | 2 (Herbicidal rate of 20% or more and less than 40%) | 5 (Herbicidal rate of 90% or more (almost completely withered)) | 5 (Herbicidal rate of 90% or more (almost completely withered)) | 5 (Herbicidal rate of 90% or more (almost completely withered)) | – | – | – | – | – | –
Cc1nn(Cc2ccccc2)c(=O)c(-c2c(-c3ccc(C(F)(F)F)cc3)sc3ccc(F)cc23)c1O [2-436] | – | 3 (Herbicidal rate of 40% or more and less than 70%) | – | – | 2 (Herbicidal rate of 20% or more and less than 40%) | – | – | – | – | – | – | 0 (Herbicidal rate of 5% or less (almost no effect)) | – | – | – | 0 (Herbicidal rate of 5% or less (almost no effect)) | 0 (Herbicidal rate of 5% or less (almost no effect)) | 0 (Herbicidal rate of 5% or less (almost no effect)) | 0 (Herbicidal rate of 5% or less (almost no effect)) | 3 (Herbicidal rate of 40% or more and less than 70%) | P: chickweed, herbicidal effect grade (chickweed): 0 (Herbicidal rate of 5% or less (almost no effect)); K: Italian ryegrass, herbicidal effect grade (Italian ryegrass): 0 (Herbicidal rate of 5% or less (almost no effect)); J: blackgrass, herbicidal effect grade (blackgrass): 0 (Herbicidal rate of 5% or less (almost no effect)); I: wild oat, herbicidal effect grade (wild oat): 0 (Herbicidal rate of 5% or less (almost no effect)); O: lambsquarters, herbicidal effect grade (lambsquarters): 0 (Herbicidal rate of 5% or less (almost no effect)); M: velvetleaf, herbicidal effect grade (velvetleaf): 0 (Herbicidal rate of 5% or less (almost no effect)); R: persian speedwell, herbicidal effect grade (persian speedwell): 0 (Herbicidal rate of 5% or less (almost no effect))
COCCOCOc1c(C)nn(C)c(=O)c1-c1c(-c2ccc(Oc3ncc(C(F)(F)F)cc3Cl)cc2)sc2ccc(F)cc12 [2-468] | – | 3 (Herbicidal rate of 40% or more and less than 70%) | – | – | 2 (Herbicidal rate of 20% or more and less than 40%) | – | – | – | – | – | – | 2 (Herbicidal rate of 20% or more and less than 40%) | – | – | – | 0 (Herbicidal rate of 5% or less (almost no effect)) | 0 (Herbicidal rate of 5% or less (almost no effect)) | 0 (Herbicidal rate of 5% or less (almost no effect)) | 5 (Herbicidal rate of 90% or more (almost completely withered)) | 1 (Herbicidal rate of 5% or more and less than 20%) | P: chickweed, herbicidal effect grade (chickweed): 0 (Herbicidal rate of 5% or less (almost no effect)); K: Italian ryegrass, herbicidal effect grade (Italian ryegrass): 0 (Herbicidal rate of 5% or less (almost no effect)); J: blackgrass, herbicidal effect grade (blackgrass): 0 (Herbicidal rate of 5% or less (almost no effect)); I: wild oat, herbicidal effect grade (wild oat): 0 (Herbicidal rate of 5% or less (almost no effect)); O: lambsquarters, herbicidal effect grade (lambsquarters): 2 (Herbicidal rate of 20% or more and less than 40%); M: velvetleaf, herbicidal effect grade (velvetleaf): 0 (Herbicidal rate of 5% or less (almost no effect)); R: persian speedwell, herbicidal effect grade (persian speedwell): 3 (Herbicidal rate of 40% or more and less than 70%)
